From ChEMBL document CHEMBL3507680, “University of Dundee, Gates Library screen for HepG2 cell viability”

Assay: Human HepG2 cell viability assay in 384 well format
Type: toxicity, cell-based
Parameters: dose 125 nL, time 70.5 hour; concentration not given beside the values
Conditions: HepG2 cells, read-out: Inhibition

| Compound | cytotoxicity at 70.5 h [%] |
| --- | --- |
| CCc1nc(C)c(CN2CCN(c3ncnc4c(C)csc34)CC2)[nH]1 | -14 |
| CC(=O)NCc1ccc(-n2ccnc2C)nc1 | -14.4 |
| COc1cc(OC)cc(N2CCC(NCc3cc[nH]n3)C2)c1 (configuration not stated) | 40.6 |
| COc1nonc1NCn1nc(C)cc1C | 51.2 |
| O=C(c1cc(Cl)c(Br)[nH]1)N1CCN(Cc2ccco2)CC1 | -6.08 |
| CCc1ccc2nc(C)cc(C(=O)NC3CCC(=O)N(C)C3)c2c1 (configuration not stated) | -4.56 |
| Cc1noc(C)c1S(=O)(=O)N1C[C@@H](C(=O)O)[C@H](c2ccccn2)C1 | -10.9 |
| CCOc1ccc(C(=O)N2CCCC2c2cnn(C)c2)cn1 (configuration not stated) | -5.51 |
| CC(C)C(=O)N1CCN(CC(O)c2cc(Cl)ccc2Cl)CC1 (configuration not stated) | -7.34 |
| COc1cccc(CN2CCCC3(CCN(C(CO)CO)C3)C2)c1 (configuration not stated) | -7.1 |
| O=C(c1ccco1)N1CCCC(c2cc(C(F)(F)F)n3ncnc3n2)C1 (configuration not stated) | 28.3 |
| c1ccc(CNc2ncc(CN3CC[C@H]4CC[C@@H](C3)N4)cn2)cc1 | 18.2 |
| Cc1ccc2nc(-c3cnc(N)nc3)cc(C(=O)N(C)C)c2c1 | 1.63 |
| CCN1CCC2(COCc3c(C)nc(N(C)C)nc32)C1 (configuration not stated) | -8.16 |
| CC(c1ccccn1)N(C)Cc1ccc(-n2ccnc2)cc1 (configuration not stated) | 1.45 |
| CC(NCC1CCN(CCO)CC1)c1cccc(Cl)c1 (configuration not stated) | -2.07 |
| CCN(Cc1cccc2c1OCO2)C(=O)NCc1ccccn1 | 13.5 |
| Cc1ccc(C(=O)N2CCc3ncnc(-c4cnn(C)c4)c3CC2)o1 | -7.08 |
| c1ccc2c(c1)OCCC2NCc1ccc(N2CCOCC2)cc1 (configuration not stated) | -2.79 |
| COc1ccc(-c2nc(C3(NC(=O)OC(C)(C)C)CCC3)no2)cn1 | -3.79 |
| Cc1nc2sccn2c1C(=O)N1CCc2c(nc(N)[nH]c2=O)C1 | -4.21 |
| O=C(c1scc2c1OCCO2)N1CCN(Cc2cccc(F)c2)CC1 | 20.1 |
| Cc1cc(C)c2c(c1)C1(CC(=O)Nc3c1cnn3C(C)C)C(=O)N2 (configuration not stated) | -5.35 |

| Compound | cytotoxicity at 70.5 h [%] |
| --- | --- |
| COc1ccc(-c2ccc(C(=O)NS(C)(=O)=O)c(F)c2)cc1 | -5.82 |
| O=C(c1cscn1)N1CCc2[nH]nc(Nc3ccccc3)c2C1 | -6.3 |
| CCc1nc(CNC2CCN(c3ccc(OC)cc3)CC2)cs1 | -5.26 |
| CCOC[C@]12COC[C@H]1CN(Cc1cccc(OC)c1)C2 | -5.95 |
| CNC(=O)NC(=O)COc1c(C(C)=O)ccc(Cl)c1Cl | -9.38 |
| CCc1noc(C)c1C(=O)N1CCC2(CCCN(CC(C)(C)C)C2=O)C1 (configuration not stated) | -5.92 |
| CCCc1cc(C(=O)N2C[C@@H](C)[C@](O)(C3CCC3)C2)[nH]n1 | 8.19 |
| Cn1cccc1C(=O)N1C[C@@H](OCc2ccncc2)[C@@H]2OCCC[C@@H]21 | -1.09 |
| Cc1nc(C(C)C)sc1C(C)N(C)C(=O)c1ccc(=O)n(C)n1 (configuration not stated) | -1.77 |
| CC(C)(C)NC(=O)c1cccc(CN2CCS(=O)(=O)CC2)c1 | -4.97 |
| O=C1CC(NCc2ccccn2)CN1CCc1ccc(F)cc1 (configuration not stated) | 20.5 |
| CCN(Cc1nc(-c2ccco2)no1)Cc1cccc2c1OCO2 | -3.24 |
| Nc1cc(CCC2CN(Cc3cccc(C(=O)O)c3)CCO2)ccn1 (configuration not stated) | -7.61 |
| O=C(CN1CCc2cncnc2C1)NC(c1ccccc1)C1CC1 (configuration not stated) | -2.84 |
| O=C(Nc1cccnc1-n1cc(Br)cn1)C1CCCC1 | -25.7 |
| Cc1ccc(-n2ncc3c2CCCC3N)cc1C (configuration not stated) | -4 |
| c1ccc2c(N3CCOC(Cn4cccn4)C3)ncnc2c1 (configuration not stated) | -4.3 |
| CN(Cc1ccc2c(c1)OCO2)Cc1nc(-c2ccco2)no1 | -10.9 |
| COC(=O)c1cc(OCC2CCC2)cc(C(=O)NCC(C)(C)O)c1 | -4.36 |
| CSCCC(=O)NS(=O)(=O)c1ccc2c(c1)OCCO2 | -7.91 |
| Cc1ccc(C)c(OCCN2CCC(N3CCNC3=O)CC2)c1 | -3.76 |
| COc1cc(N2C[C@H](OCc3cccnc3)[C@H]3OCCC[C@H]32)ncn1 | 3.36 |
| Cc1nc(O)cc([C@@H]2CN(C(=O)C3CC3)C[C@H]2c2ccccc2F)n1 | -2.23 |

| Compound | cytotoxicity at 70.5 h [%] |
| --- | --- |
| Cc1nc(-c2cc(C(=O)NCCN3CCOCC3)c3ccccn23)cs1 | -131 |
| CC(CNCc1ccc(Br)cc1)Oc1ccccn1 (configuration not stated) | 2.54 |
| Cc1nonc1C1CCCN1CCC(=O)N1CCc2ccccc2C1 (configuration not stated) | 24.4 |
| COCCNC(=O)c1sc2ccccc2c1C1CCC(CN)CC1 (configuration not stated) | -1.66 |
| O=S(=O)(c1c(N2CCCCC2)ccc2nonc12)N1CCCCC1 | -8.4 |
| Cc1cnn(CCNCC(O)COc2c(C)ccc(C)c2C)c1 (configuration not stated) | -5.42 |
| Cc1nccn1-c1ccc(C(C)NCc2ncc[nH]2)cc1 (configuration not stated) | 12.6 |
| O=c1[nH]nc2nc(N3CCSCC3)ccn12 | 0.517 |
| Cc1ccc(S(=O)(=O)N2C[C@H]3C[C@H](NC(=O)c4ccn(C)n4)[C@H]3C2)cc1 | 1.44 |
| Cc1cccc2nc(CN3CCC(Cn4ccnn4)CC3)cc(=O)n12 | -3.54 |
| O=C1CCC(CCC(=O)N2CCCC2c2nccs2)=NN1 (configuration not stated) | 8.6 |
| CCc1noc(CS(=O)(=O)C(C)c2nc(C3CC3)no2)n1 (configuration not stated) | 13.9 |
| Cc1ccccc1S(=O)(=O)N1CCc2c(ncnc2N(C)C)C1 | 0.46 |
| COc1cccc(C(=O)N2CCOC3(CCCN(C(C)=O)C3)C2)c1 (configuration not stated) | -16.1 |
| CCc1nnc2n1CCN(Cc1nnc(-c3occc3C)o1)C2 | -4.81 |
| CCC1CCC(NCCN2CCOCC2)CC1 (configuration not stated) | -6.57 |
| CC(C)Cn1cnnc1C1CCCN1C(=O)c1cc2ccccn2c1 (configuration not stated) | 14.5 |
| COCCN1CCC(CNC(=O)C2(c3cc(C)cc(C)c3)CC2)CC1 | -1.48 |
| Cn1cc(C(=O)CC2CCCN2C(=O)c2c[nH]c3ccccc23)cn1 (configuration not stated) | -13.9 |
| CS(=O)(=O)N[C@@H]1CCO[C@]2(CCN(C(=O)c3cnccn3)C2)C1 | -5.97 |
| CC(C)Cc1cc(C(=O)NC(C)(C)CN2CCCCCC2)on1 | -4.52 |
| O=C(CCN1CCCO1)N1CCCC(CO)(CCCc2ccccc2)C1 (configuration not stated) | -8.66 |
| CCc1n[nH]c(C(=O)NCCn2nccc2C)c1C | -5.81 |

| Compound | cytotoxicity at 70.5 h [%] |
| --- | --- |
| CC(Nc1ccc2c(c1)CCC2)c1nc(C2CC2)no1 (configuration not stated) | -3.74 |
| COc1ccc(CN2CC(O)CN(C(=O)CC(C)C)CC2=O)cc1 (configuration not stated) | 4.85 |
| Cc1ccsc1CN(C)CCc1scnc1C | 14.4 |
| CNc1snc(C)c1C(=O)N1CCCC(n2nc(C)cc2C)C1 (configuration not stated) | 23.1 |
| CCN(C)C[C@@H]1CN(Cc2cccc(O)c2)C[C@@H]1CO | -11.8 |
| CCOC(=O)[C@H]1[C@@H](O)C(=O)N(C)C12CCN(C(=O)C(CC)CC)CC2 | -3.26 |
| COCCNc1c(-c2ccc(C)cc2)c(=O)c1=O | -9.49 |
| Cn1nccc1C(=O)N1CCCC1c1ccc(C(=O)N2CCOCC2)s1 (configuration not stated) | 0.297 |
| O=C(CN1CCC[C@@H]1C(=O)O)NCCOc1cccc(C(F)(F)F)c1 | -6.55 |
| COc1ccc(Cn2c(CCc3c(C)n[nH]c3C)n[nH]c2=O)cc1 | -3.26 |
| COc1cccn(Cc2nnc(-c3cccnc3)o2)c1=O | -1.16 |
| CNS(=O)(=O)CC(=O)N(Cc1ccccc1)c1ccc(C)cc1 | -5.84 |
| CCNC(=O)[C@@H]1C[C@@H](n2cc(CN(CC)CC)nn2)CN1 | -13.5 |
| O=C(CN1CCCCCC1)NCc1ccc2[nH]c(=O)[nH]c2c1 | -8.16 |
| Cc1cc(C)c2c(NCCC3(O)CCCC3)ncnc2n1 | -6.61 |
| Cc1cc(C2CCCCN2C(=O)CN2C(=O)OC(C)(C)C2=O)no1 (configuration not stated) | -7.73 |
| Cc1cc(=O)c2ccccc2n1CC1CCCN(C)C1 (configuration not stated) | 31.9 |
| CC(C1CC1)N(C)C(=O)c1ccc(-n2ncc(C#N)c2N)cc1 (configuration not stated) | -6.01 |
| COc1cnc(CN2CCN(CC(C)C)C(=O)C2C)cc1O (configuration not stated) | 0.0157 |
| Cc1nc(CN2CCN(C(C)c3nc(C4CC4)no3)CC2)oc1C (configuration not stated) | -3.6 |
| Cn1ccnc1CN1CCN(CC(O)c2cc(F)ccc2F)CC1 (configuration not stated) | -10.1 |
| O=S(=O)(c1cccs1)N1CC[C@H]2[C@H]1CCN2c1ncccn1 | -4.67 |
| O=C(O)C(c1ccc2c(c1)OCCO2)N1CCC(N2CCSCC2)CC1 (configuration not stated) | -1.86 |

| Compound | cytotoxicity at 70.5 h [%] |
| --- | --- |
| CC(=O)N1CCCC(C(=O)N2CCC(=Cc3cccc(F)c3)CC2)C1 (configuration not stated) | -9.9 |
| CCCN(C(=O)COC)c1nc2c(s1)CCc1c-2cnn1C | 3.43 |
| COc1cccc(N2CCN(CC(O)c3cc(C)sc3C)CC2)c1 (configuration not stated) | -2.76 |
| Cn1ccnc1CNC1CCCN(Cc2noc(C3CC3)n2)C1 (configuration not stated) | -3.59 |
| CC(C)C[C@H]1CN(c2nc3c(cc2C(N)=O)CCC3)CC[C@@]1(C)O | -7.33 |
| CC(=O)N(C)c1nc(CN2CCOC(Cn3cc(C)cn3)C2)cs1 (configuration not stated) | 13.6 |
| COc1ccc(CN2CC[C@H]3O[C@@H](C(=O)NCC4CC4)CC[C@H]32)cc1 | -8.24 |
| COc1ccnc(NC(Cc2ccccc2)C(N)=O)n1 (configuration not stated) | -3.74 |
| Cc1cc(OCCC(=O)NCc2ccc(F)cc2)nnc1C | 0.423 |
| Cc1ccc(C(=O)N2CCN3C[C@H](Oc4cccnc4)C[C@H]3C2)cn1 | 4.6 |
| O=C(N[C@@H]1CCC[C@@H](N2CCOCC2)[C@@H]1O)c1ncccn1 | 6.75 |
| C[C@H]1C[C@@H]2CCN(C(=O)c3cnccn3)C[C@H]2O1 | -8.48 |
| O=C1N(Cc2cccnc2)C[C@H]2CN(C3CCOCC3)CCN12 | -0.196 |
| O=C1CC(c2cccnc2)C2(CCN(S(=O)(=O)C3CC3)CC2)N1 (configuration not stated) | -3.38 |
| CC(=O)N1CCN(c2ccc(Cl)nn2)C(=O)C1 | -7.52 |
| O=C(CCN1CCN(c2ccc3nncn3n2)CC1)N1CCCCC1 | -5.89 |
| NCC(c1ccccc1)N1CCc2sccc2C1 (configuration not stated) | 5.18 |
| Cc1nc(-c2cccc(C(=O)N(C)CC(C)O)c2)cs1 (configuration not stated) | 0.422 |
| Cc1cc(C(C)(O)CNC(=O)C2(C)CCCC2)c(C)o1 (configuration not stated) | -0.0569 |
| CCOc1cccc(NC(=O)Cc2cccc(O)c2)n1 | 16.2 |
